Reference: patent publication US20120058499A1, “Bioluminescent Detection of Protease Activity” (priority 2010, published 2012)

Experiments:
Test in all cases: Platform comparison of DUB substrates, signal to background
Assay type in all cases: biochemical
Conditions in all cases: DUB 10 nM; signal at 30 minutes; Ub-LUC 100 nM, DUB-Glo substrate 20 μM, Ub-AMC/Ub-rho 250 nM
[1] = target: T1, AMSH (Homo sapiens, UniProt O95630)
T1 sequence (O95630 1-424): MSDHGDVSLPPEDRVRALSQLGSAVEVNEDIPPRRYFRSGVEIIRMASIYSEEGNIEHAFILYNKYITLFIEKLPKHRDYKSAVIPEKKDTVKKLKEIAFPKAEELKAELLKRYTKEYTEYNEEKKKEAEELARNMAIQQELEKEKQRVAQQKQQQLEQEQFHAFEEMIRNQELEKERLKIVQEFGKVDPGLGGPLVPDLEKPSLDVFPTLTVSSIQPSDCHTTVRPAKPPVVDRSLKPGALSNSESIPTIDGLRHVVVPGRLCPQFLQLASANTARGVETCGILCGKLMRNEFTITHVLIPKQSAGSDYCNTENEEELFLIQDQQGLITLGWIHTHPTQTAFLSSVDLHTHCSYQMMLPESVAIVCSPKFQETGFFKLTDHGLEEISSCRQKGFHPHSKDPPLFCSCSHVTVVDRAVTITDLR
Experimental: (§1) For Ub-AMC and Ub-Rhodamine110, all enzymes were diluted into 50 mM Tris, pH 8.0, 5 mM DTT, 0.05% CHAPS to a final concentration of 10 nM. […] Either Ub-AMC or Ub-Rhodamine110 (final reaction concentration equal to 250 nM) were diluted into 50 mM Tris, pH 8.0, 5 mM DTT, 0.05% (w/v) CHAPS. […] For Ub-Rhodamine110, fluorescence was monitored with filters corresponding to excitation at 485 nm and emission at 531 nm.

[2] = target: Ataxin3 (Homo sapiens, UniProt P54252)
Sequence of Ataxin3 (P54252 whole entry, species assumed): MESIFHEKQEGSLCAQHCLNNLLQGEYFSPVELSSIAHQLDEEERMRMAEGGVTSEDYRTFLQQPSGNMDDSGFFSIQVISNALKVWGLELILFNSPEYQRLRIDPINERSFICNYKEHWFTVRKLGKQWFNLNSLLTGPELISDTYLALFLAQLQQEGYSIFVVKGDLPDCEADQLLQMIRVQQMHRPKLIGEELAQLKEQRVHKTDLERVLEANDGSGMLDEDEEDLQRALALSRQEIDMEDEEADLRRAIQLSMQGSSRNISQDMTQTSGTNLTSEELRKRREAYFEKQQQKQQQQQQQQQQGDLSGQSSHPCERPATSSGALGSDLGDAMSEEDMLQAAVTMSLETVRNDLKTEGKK
Experimental: as §1

[3] = target: T2, Ataxin3-like (Homo sapiens, UniProt Q9H3M9)
T2 sequence (Q9H3M9 1-355): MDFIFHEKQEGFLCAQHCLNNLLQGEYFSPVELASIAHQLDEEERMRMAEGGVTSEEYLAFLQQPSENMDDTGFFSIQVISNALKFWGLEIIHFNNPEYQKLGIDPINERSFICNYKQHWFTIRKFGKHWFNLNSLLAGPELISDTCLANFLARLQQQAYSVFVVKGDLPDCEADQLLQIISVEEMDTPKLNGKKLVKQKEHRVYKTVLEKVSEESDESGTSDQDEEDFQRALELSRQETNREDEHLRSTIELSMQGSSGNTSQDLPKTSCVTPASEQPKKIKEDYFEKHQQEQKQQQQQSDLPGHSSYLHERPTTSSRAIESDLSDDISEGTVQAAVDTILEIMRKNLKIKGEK
Experimental: as §1

[4] = target: JosD1 (Homo sapiens, UniProt Q15040)
Experimental: as §1

[5] = target: T3, JosD2 (Homo sapiens, UniProt Q8TAC2)
T3 sequence (Q8TAC2 1-188): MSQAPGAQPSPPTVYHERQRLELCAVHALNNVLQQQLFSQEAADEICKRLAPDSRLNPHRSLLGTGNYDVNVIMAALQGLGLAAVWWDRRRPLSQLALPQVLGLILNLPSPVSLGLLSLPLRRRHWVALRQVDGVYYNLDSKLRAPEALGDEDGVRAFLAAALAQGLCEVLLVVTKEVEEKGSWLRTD
Experimental: as §1

[6] = target: T4, Otub2 (Homo sapiens, UniProt Q96DC9)
T4 sequence (Q96DC9 1-234): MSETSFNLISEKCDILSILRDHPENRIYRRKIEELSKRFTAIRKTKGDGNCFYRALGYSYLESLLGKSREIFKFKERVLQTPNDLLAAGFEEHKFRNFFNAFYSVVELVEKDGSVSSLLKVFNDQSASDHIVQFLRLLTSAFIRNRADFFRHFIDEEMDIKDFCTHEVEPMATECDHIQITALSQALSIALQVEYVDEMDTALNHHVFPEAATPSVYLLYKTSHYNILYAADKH
Experimental: as §1

[7] = target: T5, UCHL5 (Homo sapiens, UniProt Q9Y5K5)
T5 sequence (Q9Y5K5 1-329): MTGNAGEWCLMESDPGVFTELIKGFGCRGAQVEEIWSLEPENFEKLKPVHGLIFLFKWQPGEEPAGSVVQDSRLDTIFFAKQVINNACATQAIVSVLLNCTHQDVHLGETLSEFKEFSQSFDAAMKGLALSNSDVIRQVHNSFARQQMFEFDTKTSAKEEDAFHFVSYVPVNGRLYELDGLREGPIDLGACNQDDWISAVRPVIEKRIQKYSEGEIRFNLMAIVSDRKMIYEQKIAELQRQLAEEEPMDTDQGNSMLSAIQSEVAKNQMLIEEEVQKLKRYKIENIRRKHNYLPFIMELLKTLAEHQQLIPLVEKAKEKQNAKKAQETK
Experimental: as §1

[8] = target: USP14 (Homo sapiens, UniProt P54578)
Sequence of USP14 (P54578 whole entry, species assumed): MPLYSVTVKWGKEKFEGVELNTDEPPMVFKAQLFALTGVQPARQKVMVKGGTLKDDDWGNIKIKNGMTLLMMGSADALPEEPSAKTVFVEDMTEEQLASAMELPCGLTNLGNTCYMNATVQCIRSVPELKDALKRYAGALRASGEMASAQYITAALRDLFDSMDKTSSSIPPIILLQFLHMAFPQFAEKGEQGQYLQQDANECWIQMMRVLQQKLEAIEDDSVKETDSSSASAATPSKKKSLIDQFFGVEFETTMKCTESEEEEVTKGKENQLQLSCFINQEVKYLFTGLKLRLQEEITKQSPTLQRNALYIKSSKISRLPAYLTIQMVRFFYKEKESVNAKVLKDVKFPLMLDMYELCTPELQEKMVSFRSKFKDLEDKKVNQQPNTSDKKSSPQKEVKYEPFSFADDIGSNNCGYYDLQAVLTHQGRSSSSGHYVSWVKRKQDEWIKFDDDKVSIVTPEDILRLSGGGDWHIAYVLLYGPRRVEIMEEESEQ
Experimental: as §1

[9] = target: USP20 (Homo sapiens, UniProt Q9Y2K6)
Sequence of USP20 (Q9Y2K6 whole entry, species assumed): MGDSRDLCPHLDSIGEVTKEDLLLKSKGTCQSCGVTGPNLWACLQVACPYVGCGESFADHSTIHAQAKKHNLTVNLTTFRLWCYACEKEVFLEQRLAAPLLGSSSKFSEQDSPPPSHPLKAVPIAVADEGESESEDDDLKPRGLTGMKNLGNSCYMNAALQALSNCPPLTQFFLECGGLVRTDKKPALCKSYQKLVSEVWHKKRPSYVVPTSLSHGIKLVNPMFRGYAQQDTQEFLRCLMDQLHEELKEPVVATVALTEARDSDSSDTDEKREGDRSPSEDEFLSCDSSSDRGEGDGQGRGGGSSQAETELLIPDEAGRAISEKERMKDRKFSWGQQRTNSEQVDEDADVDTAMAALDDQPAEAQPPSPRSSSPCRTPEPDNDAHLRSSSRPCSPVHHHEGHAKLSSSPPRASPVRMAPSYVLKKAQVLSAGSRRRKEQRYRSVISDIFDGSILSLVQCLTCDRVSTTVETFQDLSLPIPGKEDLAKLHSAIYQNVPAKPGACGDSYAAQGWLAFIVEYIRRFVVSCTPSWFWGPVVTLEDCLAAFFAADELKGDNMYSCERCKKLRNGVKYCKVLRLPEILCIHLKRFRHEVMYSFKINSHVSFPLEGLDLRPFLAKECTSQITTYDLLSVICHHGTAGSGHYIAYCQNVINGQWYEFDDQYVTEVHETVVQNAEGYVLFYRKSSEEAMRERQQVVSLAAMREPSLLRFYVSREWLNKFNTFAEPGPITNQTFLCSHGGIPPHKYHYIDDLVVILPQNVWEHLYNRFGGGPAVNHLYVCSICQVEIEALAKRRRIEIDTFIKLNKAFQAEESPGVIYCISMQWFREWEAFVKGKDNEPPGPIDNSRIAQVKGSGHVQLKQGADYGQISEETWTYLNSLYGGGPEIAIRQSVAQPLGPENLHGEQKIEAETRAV
Experimental: as §1

Substance | Signal to Background value [1] | Signal to Background value [2] | Signal to Background value [3] | Signal to Background value [4] | Signal to Background value [5] | Signal to Background value [6] | Signal to Background value [7] | Signal to Background value [8] | Signal to Background value [9]
Z-Arg-Leu-Arg-Gly-Gly (SEQ ID NO: 1)-amino-luciferin [DUB-glo ™] | 1.4 | 1.3 | 1.5 | 1.3 | 2.1 | 1.3 | 1.4 | 1.6 | 2.8
Ub(1-76)-aminoluciferin [Ub-LUC] | 16 | 4.0 | 120 | 74 | 760 | 980 | 1700 | 6.0 | 473
